The source of these data is patent US20260001928A1 (CORTERIA PHARMACEUTICALS, priority 2022, published 2026).

pEC50: −log10 of the molar value. *1 amine or outer side, *2 acyl side, *3 side chain or, on linkers, in order; H or OH if unused. Where a SMILES comes first, the peptide text is derived from it. Side-chain parts run from the residue outwards. [ ]: non-standard residue; d: D form. The star is where a group is joined. C16 diacid = O=C(O)CCCCCCCCCCCCCCC(=O)*; γGlu = O=C(O)[C@H](CCC(=O)[*:2])N[*:1]; NMeI = CC[C@H](C)[C@H](NC)C(=O)O; αMeL = CC(C)C[C@](C)(N)C(=O)O; Ac5c = NC1(C(=O)O)CCCC1; Ac3c = NC1(C(=O)O)CC1; Aib = CC(C)(N)C(=O)O

One assay concerns the target T1, human CRF2a receptor (Homo sapiens, UniProt Q13324).
T1 construct: expressed in transfected cells; host or cells: TeloHEAC cells
T1 sequence (Q13324 1-411): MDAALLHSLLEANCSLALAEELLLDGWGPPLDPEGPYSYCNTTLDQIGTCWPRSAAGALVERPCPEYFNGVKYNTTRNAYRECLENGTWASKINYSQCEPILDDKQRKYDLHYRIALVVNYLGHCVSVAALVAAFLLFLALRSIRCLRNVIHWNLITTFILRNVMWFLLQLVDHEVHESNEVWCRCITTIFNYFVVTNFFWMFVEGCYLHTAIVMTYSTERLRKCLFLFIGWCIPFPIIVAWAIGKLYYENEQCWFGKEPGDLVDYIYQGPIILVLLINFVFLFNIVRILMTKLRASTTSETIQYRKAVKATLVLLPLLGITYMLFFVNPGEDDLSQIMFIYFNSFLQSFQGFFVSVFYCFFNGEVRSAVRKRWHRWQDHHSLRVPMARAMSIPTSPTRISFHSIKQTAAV
The assay is described as follows: Activity at human CRF2a receptor, cAMP functional assay in TeloHEAC cells. The format is cell-based. To be noted: TeloHEAC cells stably expressing human CRF2a receptor, relative to urocortin 2 (100 nM = 100%). An outline of the steps:
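cAMP accumulation was measured by HTRF 665/620 nm ratio after 30 min at 37° C compound exposure (16 twofold dilutions) of CRF2a-expressing TeloHEAC cells, 10000/well, in HEPES-buffered HBSS plus IBMX. Activity was normalised to urocortin 2 at 100 nM (100%), and EC50 was the concentration giving half-maximal activation.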

Another assay addresses T2, CFR1R receptor (Homo sapiens, UniProt P34998).
T2 construct: host or cells: CHO-K1 (clone 2)
T2 sequence (P34998 24-415): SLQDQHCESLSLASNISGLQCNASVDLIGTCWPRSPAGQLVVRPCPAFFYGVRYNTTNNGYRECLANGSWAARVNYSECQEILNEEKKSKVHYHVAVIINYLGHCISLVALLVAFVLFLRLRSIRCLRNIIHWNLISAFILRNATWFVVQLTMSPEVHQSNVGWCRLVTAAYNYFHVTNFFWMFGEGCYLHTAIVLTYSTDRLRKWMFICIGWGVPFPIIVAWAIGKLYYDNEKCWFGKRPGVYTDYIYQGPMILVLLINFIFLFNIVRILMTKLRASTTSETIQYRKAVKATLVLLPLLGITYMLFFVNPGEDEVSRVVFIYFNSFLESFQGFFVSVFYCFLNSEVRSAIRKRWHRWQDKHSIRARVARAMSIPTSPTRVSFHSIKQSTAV
Nature of the assay: Activity at anti-target CFR1R receptor, cAMP assay in CRF1R-overexpression CHO-K1 cells. The format is cell-based. As to conditions: 100% = Sauvagine at 100 nM; for pEC50: cAMP. An outline of the steps: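 The method mirrors that used with TeloHAEC cells. Here, thawed clone 2 cells seeded at 4000 cells/well are tested, and 100 nM Sauvagine sets the top of the activation scale.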
A general note: Cyclic AMP is a second messenger, typically raised through Gs and lowered through Gi signalling.

Consider `CC[C@H](C)[C@H](NC(C)=O)C(=O)N[C@H](C(=O)N[C@@H](CC(C)C)C(=O)N[C@@H](CO)C(=O)N[C@@H](CC(C)C)C(=O)N[C@@H](CC(=O)O)C(=O)N[C@@H](C(=O)N1CCC[C@H]1C(=O)N[C@H](C(=O)N[C@@H](CCCCN)C(=O)N[C@@H](CC(C)C)C(=O)N[C@@H](CCCCNC(=O)CC[C@H](NC(=O)CCCCCCCCCCCCCCC(=O)O)C(=O)O)C(=O)N[C@@H](CCCCN)C(=O)N[C@H](C(=O)N[C@@H](CC(C)C)C(=O)N[C@@H](CC(C)C)C(=O)N[C@@H](CCC(=O)O)C(=O)N[C@@H](CCC(N)=O)C(=O)N[C@@H](CCC(=O)O)C(=O)N[C@@H](CCCCN)C(=O)N[C@@H](CCC(N)=O)C(=O)N[C@@H](CCCCN)C(=O)N[C@@H](CCCCN)C(=O)N[C@@H](CCC(N)=O)C(=O)N[C@@H](CCCNC(=N)N)C(=O)N[C@@H](CCC(=O)O)C(=O)N[C@@H](CCC(N)=O)C(=O)N[C@@H](C)C(=O)N[C@@H](CCC(=O)O)C(=O)N[C@H](C(=O)N[C@@H](CC(N)=O)C(=O)NC1(C(=O)N[C@@H](CCC(N)=O)C(=O)N[C@H](C(=O)N[C@@H](CC(C)C)C(=O)N[C@@H](C)C(=O)N[C@@H](CCC(N)=O)C(=O)N[C@H](C(N)=O)C(C)C)[C@@H](C)CC)CCCC1)[C@@H](C)O)[C@@H](C)CC)[C@@H](C)CC)C(C)C)C(C)C` [compound 60] (Ac-IVLSLD[dV]PIKLK([γGlu-C16 diacid])KILLEQEKQKKQREQAETN[Ac5c]QILAQV-NH2), for which the pEC50 (commonly the negative decadic logarithm of the EC50, by convention in mol/L) at human CRF2a receptor is 9.47; at CFR1R receptor, < 6.60. Further, the “Emax (% I)” value at CFR1R receptor came out at 5 % I.
For the compound `CC[C@H](C)[C@H](NC(C)=O)C(=O)N[C@H](C(=O)N[C@@H](CC(C)C)C(=O)N[C@@H](CO)C(=O)N[C@@H](CC(C)C)C(=O)N[C@@H](CC(=O)O)C(=O)N[C@@H](C(=O)N1CCC[C@H]1C(=O)N[C@H](C(=O)N[C@@H](CCCCN)C(=O)N[C@@H](CC(C)C)C(=O)N[C@@H](CCCCNC(=O)CC[C@H](NC(=O)CCCCCCCCCCCCCCC(=O)O)C(=O)O)C(=O)N[C@@H](CCCCN)C(=O)N[C@H](C(=O)N[C@@H](CC(C)C)C(=O)N[C@@H](CC(C)C)C(=O)N[C@@H](CCC(=O)O)C(=O)N[C@@H](CCC(N)=O)C(=O)N[C@@H](CCC(=O)O)C(=O)N[C@@H](CCCCN)C(=O)N[C@@H](CCC(N)=O)C(=O)N[C@@H](CCCCN)C(=O)N[C@@H](CCCCN)C(=O)N[C@@H](CCC(N)=O)C(=O)N[C@@H](CCCNC(=N)N)C(=O)N[C@@H](CCC(=O)O)C(=O)N[C@@H](CCC(N)=O)C(=O)N[C@@H](C)C(=O)N[C@@H](CCC(=O)O)C(=O)N[C@H](C(=O)N[C@@H](CC(N)=O)C(=O)NC1(C(=O)N[C@@H](CCC(N)=O)C(=O)N[C@H](C(=O)N[C@@H](CC(C)C)C(=O)N[C@@H](C)C(=O)N[C@@H](CCC(N)=O)C(=O)N[C@H](C(N)=O)C(C)C)[C@@H](C)CC)CC1)[C@@H](C)O)[C@@H](C)CC)[C@@H](C)CC)C(C)C)C(C)C` [compound 61] (Ac-IVLSLD[dV]PIKLK([γGlu-C16 diacid])KILLEQEKQKKQREQAETN[Ac3c]QILAQV-NH2), the pEC50 at human CRF2a receptor is 9.44; at CFR1R receptor, < 6.60. In addition, the “Emax (% I)” value at CFR1R receptor came to 3 % I.
For the compound `CC[C@H](C)[C@H](NC)C(=O)N[C@H](C(=O)N[C@@H](CC(C)C)C(=O)N[C@@H](CO)C(=O)N[C@@H](CC(C)C)C(=O)N[C@@H](CC(=O)O)C(=O)N[C@@H](C(=O)N1CCC[C@H]1C(=O)N[C@H](C(=O)N[C@@H](CCCCN)C(=O)N[C@@](C)(CC(C)C)C(=O)N[C@@H](CCCCNC(=O)CC[C@H](NC(=O)CCCCCCCCCCCCCCC(=O)O)C(=O)O)C(=O)N[C@@H](CCCCN)C(=O)N[C@H](C(=O)N[C@@H](CC(C)C)C(=O)N[C@@H](CC(C)C)C(=O)N[C@@H](CCC(=O)O)C(=O)N[C@@H](CCC(N)=O)C(=O)N[C@@H](CCC(=O)O)C(=O)N[C@@H](CCCCN)C(=O)N[C@@H](CCC(N)=O)C(=O)N[C@@H](CCCCN)C(=O)N[C@@H](CCCCN)C(=O)N[C@@H](CCC(N)=O)C(=O)N[C@@H](CCCNC(=N)N)C(=O)N[C@@H](CCC(=O)O)C(=O)N[C@@H](CCC(N)=O)C(=O)N[C@@H](C)C(=O)N[C@@H](CCC(=O)O)C(=O)N[C@H](C(=O)N[C@@H](CC(N)=O)C(=O)NC(C)(C)C(=O)N[C@@H](CCC(N)=O)C(=O)N[C@H](C(=O)N[C@@H](CC(C)C)C(=O)N[C@@H](C)C(=O)N[C@@H](CCC(N)=O)C(=O)N[C@H](C(N)=O)C(C)C)[C@@H](C)CC)[C@@H](C)O)[C@@H](C)CC)[C@@H](C)CC)C(C)C)C(C)C` [compound 65] (H-[NMeI]VLSLD[dV]PIK[αMeL]K([γGlu-C16 diacid])KILLEQEKQKKQREQAETN[Aib]QILAQV-NH2), the pEC50 on human CRF2a receptor is 10.00; on CFR1R receptor, < 6.60. Besides, the “Emax (% I)” value at CFR1R receptor was found to be 10 % I.
For `CC[C@H](C)[C@H](NC)C(=O)N[C@H](C(=O)N[C@@H](CC(C)C)C(=O)N[C@@H](CO)C(=O)N[C@@H](CC(C)C)C(=O)N[C@@H](CC(=O)O)C(=O)N[C@@H](C(=O)N1CCC[C@H]1C(=O)N[C@H](C(=O)N[C@@H](CCCCN)C(=O)N[C@@H](CC(C)C)C(=O)N[C@@H](CCCCNC(=O)CC[C@H](NC(=O)CCCCCCCCCCCCCCC(=O)O)C(=O)O)C(=O)N[C@@H](CCCCN)C(=O)N[C@H](C(=O)N[C@@H](CC(C)C)C(=O)N[C@@H](CC(C)C)C(=O)N[C@@H](CCC(=O)O)C(=O)N[C@@H](CCC(N)=O)C(=O)N[C@@H](CCC(=O)O)C(=O)N[C@@H](CCCCN)C(=O)N[C@@H](CCC(N)=O)C(=O)N[C@@H](CCCCN)C(=O)N[C@@H](CCCCN)C(=O)N[C@@H](CCC(N)=O)C(=O)N[C@@H](CCCNC(=N)N)C(=O)N[C@@H](CCC(=O)O)C(=O)N[C@@H](CCC(N)=O)C(=O)N[C@@H](C)C(=O)N[C@@H](CCC(=O)O)C(=O)N[C@H](C(=O)N[C@@H](CC(N)=O)C(=O)N[C@H](C(=O)N[C@@H](CCC(N)=O)C(=O)N[C@H](C(=O)N[C@@H](CC(C)C)C(=O)N[C@@H](C)C(=O)N[C@@H](CCC(N)=O)C(=O)N[C@H](C(N)=O)C(C)C)[C@@H](C)CC)C(C)C)[C@@H](C)O)[C@@H](C)CC)[C@@H](C)CC)C(C)C)C(C)C` [compound 66] (H-[NMeI]VLSLD[dV]PIKLK([γGlu-C16 diacid])KILLEQEKQKKQREQAETNVQILAQV-NH2), the pEC50 at human CRF2a receptor was 8.98. On CFR1R receptor, the “Emax (% I)” value is listed as 4 % I and the pEC50 was < 6.60.
Turning to `CC[C@H](C)[C@H](NC)C(=O)N[C@H](C(=O)N[C@@H](CC(C)C)C(=O)N[C@@H](CO)C(=O)N[C@@H](CC(C)C)C(=O)N[C@@H](CC(=O)O)C(=O)N[C@@H](C(=O)N1CCC[C@H]1C(=O)N[C@H](C(=O)N[C@@H](CCCCN)C(=O)N[C@@](C)(CC(C)C)C(=O)N[C@@H](CCCCNC(=O)CC[C@H](NC(=O)CCCCCCCCCCCCCCC(=O)O)C(=O)O)C(=O)N[C@@H](CCCCN)C(=O)N[C@H](C(=O)N[C@@H](CC(C)C)C(=O)N[C@@H](CC(C)C)C(=O)N[C@@H](CCC(=O)O)C(=O)N[C@@H](CCC(N)=O)C(=O)N[C@@H](CCC(=O)O)C(=O)N[C@@H](CCCCN)C(=O)N[C@@H](CCC(N)=O)C(=O)N[C@@H](CCCCN)C(=O)N[C@@H](CCCCN)C(=O)N[C@@H](CCC(N)=O)C(=O)N[C@@H](CCCNC(=N)N)C(=O)N[C@@H](CCC(=O)O)C(=O)N[C@@H](CCC(N)=O)C(=O)N[C@@H](C)C(=O)N[C@@H](CCC(=O)O)C(=O)N[C@H](C(=O)N[C@@H](CC(N)=O)C(=O)N[C@H](C(=O)N[C@@H](CCC(N)=O)C(=O)N[C@H](C(=O)N[C@@H](CC(C)C)C(=O)N[C@@H](C)C(=O)N[C@@H](CCC(N)=O)C(=O)N[C@H](C(N)=O)C(C)C)[C@@H](C)CC)C(C)C)[C@@H](C)O)[C@@H](C)CC)[C@@H](C)CC)C(C)C)C(C)C` [compound 67] (H-[NMeI]VLSLD[dV]PIK[αMeL]K([γGlu-C16 diacid])KILLEQEKQKKQREQAETNVQILAQV-NH2), the pEC50 at human CRF2a receptor is 9.47; at CFR1R receptor, < 6.60. Moreover, the “Emax (% I)” value at CFR1R receptor was 8 % I.
